For five compounds, IC50 results are on record in US5364931A (Bayer Aktiengesellschaft, priority 1990, dated 1994).

One experiment concerns the target T1, HIV protease (Human immunodeficiency virus type 1 group M subtype B, UniProt P04585).
T1 construct: purified HIV protease was incubated with synthetic peptide
The experiment can be described thus: HIV-specific protease enzyme test (RP-HPLC), compounds of formula (I). It is filed as biochemical. As to conditions: purified HIV protease, synthetic Gag cleavage-site peptide, compounds of general formula (I). The procedure: (§1) The results for the examples listed below were determined by the HIV test system described in the following literature reports [cf. Hansen, J., Billich, S., Schulze, T. Sukrow, S. and Molling, K. (1988), EMBO Journal, Vol. 7, No. 6, pages 1785-1791]: purified HIV protease was incubated with synthetic peptide which imitates a cleavage site in the Gag precursor protein and represents an in vivo cleavage site of the HIV protease. The resulting cleavage products of the synthetic peptide were analysed by means of reverse phase high performance liquid chromatography (RP-HPLC). The IC50 values given relate to the substance concentration which causes a 50% inhibition of protease activity under the abovementioned test conditions.

The next experiment has as its target T2, HIV-1 protease (Human immunodeficiency virus type 1 group M subtype B, UniProt P04585).
T2 construct: purified HIV protease was incubated with synthetic peptide
In words: HIV-specific protease enzyme test (RP-HPLC), HIV-1. It is filed as biochemical. The procedure:
as §1

The target of another experiment is T3, HIV-2 protease (Human immunodeficiency virus type 2 subtype A, UniProt P04584).
T3 construct: purified HIV protease was incubated with synthetic peptide
In words: HIV-specific protease enzyme test (RP-HPLC), HIV-2. It is filed as biochemical. The settings on record: compounds of general formula (VIa). The procedure: as §1

The target in another experiment is HIV-I protease (Human immunodeficiency virus type 1 group M subtype B, UniProt P04585). As to conditions: read-out: IC50 (inactivation of HIV-I protease); cited from earlier work.

T3 sequence (P04584 514-612 limits assumed): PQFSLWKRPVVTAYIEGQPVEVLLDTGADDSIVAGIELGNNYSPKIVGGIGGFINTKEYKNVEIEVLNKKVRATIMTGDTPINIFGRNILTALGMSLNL

The term IC50 denotes the point on the concentration scale where inhibition reaches its midpoint. At HIV protease, `CCOP(=O)(OCC)C1CCCN1C[C@H](O)[C@H](CC1CCCCC1)NC(=O)OC(C)(C)C` (mixture of isomers) [5 (non-polar), Diethyl 1-{(2S, 3S)-3-[(tert-butoxycarbonyl)-amino]-4-cyclohexyl-2-hydroxy-butyl}-(2R and 2S)-2 (pyrrolidinyl)-phosphonate] had an IC50 of 1000 nM. On to `CCOP(=O)(OCC)C1CCCN1C[C@H](O)[C@H](CC1CCCCC1)NC(=O)OC(C)(C)C` (mixture of isomers) [5 (polar), Diethyl 1-{(2S, 3S)-3-[(tert-butoxycarbonyl)-amino]-4-cyclohexyl-2-hydroxy-butyl}-(2R and 2S)-2 (pyrrolidinyl)-phosphonate], for which, at HIV protease, the IC50 was determined as 100 nM. On to `CC(C)[C@H](NC(=O)[C@H](Cc1ccccc1)NC(=O)CC(C)(C)C)C(=O)N[C@@H](Cc1ccccc1)C1CO1` (stereo partly drawn) [Example 46], for which the IC50 on HIV-1 protease turned out to be 5 nM; on HIV-2 protease it was 10 nM. For `O=[N+]([O-])c1ccc(OCC2CO2)cc1` (stereo not drawn) [EPNP, 1,2-epoxy-3-(4-nitrophenoxy)propane], on HIV-I protease, the IC50 is 450000 nM. In the case of “Diethyl 1-{(3S, 4S)-4-[(2S)-3-(tert-butylsulphonyl)-2-(1-naphthylmethyl)propanoyl]valinylamino]-5-cyclohexyl-3-hydroxy-pentanoyl}-(2R or 2S)-2-(pyrrolidinyl)phosphonate [26 (polar)]”, the IC50 at HIV protease was found to be 100 nM.
